Measured values: PubChem BioAssay (NCI)
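1) Cells in 96-well plates. 2) Compound, 48 h, 5 concentrations. 3) Linear interpolation between surrounding doses. 4) Unreached endpoint = highest concentration. At the GI50, growth is halved. At the TGI there is no net growth.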

Key:
Assay in all cases: NCI-60 cell line screen, 48 h
EKVX NSCLC = tested on: EKVX NSCLC
HCC-2998 colon = tested on: HCC-2998 colon
HOP-62 NSCLC = tested on: HOP-62 NSCLC
NCI-H226 lung = tested on: NCI-H226 lung
OVCAR-3 ovarian = tested on: OVCAR-3 ovarian
OVCAR-5 ovarian = tested on: OVCAR-5 ovarian
SK-MEL-5 melanoma = tested on: SK-MEL-5 melanoma
T-47D breast = tested on: T-47D breast
UACC-62 melanoma = tested on: UACC-62 melanoma
NCI-H460 lung = tested on: NCI-H460 lung

SMILES | TGI (EKVX NSCLC) [µM] | TGI (HCC-2998 colon) [µM] | TGI (HOP-62 NSCLC) [µM] | TGI (NCI-H226 lung) [µM] | TGI (OVCAR-3 ovarian) [µM] | TGI (OVCAR-5 ovarian) [µM] | TGI (SK-MEL-5 melanoma) [µM] | TGI (T-47D breast) [µM] | TGI (UACC-62 melanoma) [µM] | TGI (NCI-H460 lung) [µM] | GI50 (EKVX NSCLC) [µM] | GI50 (NCI-H226 lung) [µM] | GI50 (NCI-H460 lung) [µM] | GI50 (SK-MEL-5 melanoma) [µM] | GI50 (T-47D breast) [µM] | GI50 (UACC-62 melanoma) [µM]
CC(C)COP(=O)(OCC(C)C)C(NS(=O)(=O)c1ccccc1)(C(F)(F)F)C(F)(F)F | 19 | 18.5 | 35.1 | 39.9 | 23.8 | 38.1 | 33 | 9.34 | 19.1 |  |  |  |  |  |  | 
CN(C)C(=S)S | > 100 | 59.4 |  | > 100 | 28.3 | > 100 | > 100 | > 100 | > 100 | > 100 |  |  |  |  |  | 
COc1cc(C2CC(C)(Nc3ccccc3)Oc3cc4c(cc32)OCO4)cc(OC)c1OC (stereo unspecified) | > 100 | 3.98 | > 55.1 | 7.12 | 3.52 | > 34.3 | 8.01 |  | > 100 | 25.6 |  |  |  |  |  | 
O=C(c1cc2ccccc2cc1O)N1CCCCC1 | 78.1 | 49.8 | > 100 | 85.9 |  |  | 54.6 | > 100 | > 100 | > 100 |  |  |  |  |  | 
COCOc1ccc(Cn2c(=O)n(C)c(=O)c3c2ncn3C)cc1[N+](=O)[O-] | > 100 | > 100 |  | > 100 | > 100 |  |  |  | > 100 | > 100 |  |  |  |  |  | 
COc1cc([N+](=O)[O-])c(OC)cc1-c1nc2sc(Cl)cn2c1/C=N/Nc1ccccn1 | > 50 |  |  | 48.8 |  |  | 36 | > 50 | > 50 | > 50 | > 50 | 12.1 | 15.8 | 12.8 | 20.6 | 26
CCOC(=O)NC(=S)NN(C)C1=NCC(C)(C)S1 | > 100 |  | > 100 |  | > 100 | > 100 | > 100 | > 100 | > 100 | > 100 |  |  |  |  |  | 
COc1cc(NS(C)(=O)=O)ccc1N1Cc2cnc3ccc4[nH]c(C)cc1c4c23 | > 100 | > 100 | 71.9 | > 100 | > 100 | > 100 | > 100 |  | > 100 | > 100 |  |  |  |  |  | 
O=[N+]([O-])/C(C(Cl)=C(Cl)Cl)=C(\Nc1cccc2cccnc12)SCc1ccccc1 | 49.1 | 36.7 | 33.6 | 48.6 | 32.8 | 78.9 |  | 40.2 | 63.7 | 55.3 |  |  |  |  |  | 
C=CCNC(=S)/N=C/c1c(O)c2ccccc2oc1=O | > 100 | > 100 |  | > 100 | > 100 | > 100 | > 100 |  | > 100 | > 100 |  |  |  |  |  | 
Cc1c(S(=O)(=O)/N=C(\N)Nc2ccc(Cl)cc2)sc2ccc(Cl)cc12 | 33.4 |  | 36.9 | 44 | 36.5 | 38.1 | > 100 | > 100 | 45.4 | 33.6 |  |  |  |  |  | 
O=C(/C=C/c1ccsc1)c1ccsc1 | > 100 | 35.6 | > 100 | 39 |  |  | 35.1 | 92.2 | 89.9 | 69.6 |  |  |  |  |  | 
COc1nc(C#CCC(C)O)nc(OC)n1 (stereo unspecified) | 39.3 |  | 36.8 |  | 47.9 | 33.3 | 34.7 | > 100 | 37.3 | > 100 |  |  |  |  |  | 
C=CCn1c(=O)ccn(COCCO)c1=O | > 100 | > 100 | > 100 | > 100 | > 100 | > 100 | > 100 | > 100 |  | > 100 |  |  |  |  |  | 
N#C/C(=C\c1cc(Br)c(O)c(Br)c1)c1cccnc1 | 53.3 | > 100 | 97.2 | 91.4 | 44 | > 100 |  |  | > 100 | > 100 |  |  |  |  |  | 
O=S(=O)(O)c1cc2ccc1/C=C\c1ccc(cc1S(=O)(=O)O)N=Nc1ccc(c(S(=O)(=O)O)c1)/C=C\c1ccc(cc1S(=O)(=O)O)N=N2 | > 100 | > 100 | > 100 | > 100 | > 100 | > 100 | > 100 |  | > 100 | > 100 |  |  |  |  |  | 
O=C(NCCCN(CCCCN(CCCNC(=O)C(F)(F)F)Cc1ccccc1)Cc1ccccc1)C(F)(F)F | 25.3 | 14.7 |  | 34.4 |  | 40.8 | 14.9 | 40.6 | 30.6 | 22.1 |  |  |  |  |  | 
c1ccc2c(c1)NC(C1OC3CCCN3C1C1Nc3ccccc3S1)S2 (stereo unspecified) | > 100 | > 100 | > 100 |  | > 100 | > 100 | > 100 |  | > 100 | > 100 |  |  |  |  |  | 
C/C=C/C=C/c1nc(C#N)c(N)o1 | > 100 | > 100 | > 100 | > 100 | > 100 | > 100 |  | > 100 | > 100 |  |  |  |  |  |  | 
COc1ccc(CC(O)CN2CCOCC2)cc1 (stereo unspecified) | > 100 |  | > 100 | > 100 | > 100 | > 100 | > 100 | > 100 | > 100 | > 100 |  |  |  |  |  | 
O=C(N=Nc1cc(Cl)ccc1Cl)NNc1cc(Cl)ccc1Cl |  | 94.1 | 40.7 |  | 32.7 | 39.8 | 25.3 | > 100 | 27 | 44.5 |  |  |  |  |  | 
N#CCCN(CCC#N)c1ccc(/C=C2\N=C(c3ccccc3)N(c3ccc(Cl)cc3)C2=O)cc1 | > 100 |  | > 100 | > 100 | > 100 | > 100 | > 100 | > 100 | > 100 | > 100 |  |  |  |  |  | 
Clc1ccc(-c2nn3c(-c4ccncc4)nnc3s2)cc1 | > 100 |  | 51.3 | > 100 | > 100 | > 100 | > 100 | > 100 | > 100 | > 100 |  |  |  |  |  | 
O=C1/C(=C\c2cccc(Oc3ccccc3)c2)S(=O)(=O)C(c2ccccc2)N1Cc1ccccc1 (stereo unspecified) | 71.9 | 82.5 | > 100 |  | 34.2 | > 100 | 39.3 | > 100 | 57.7 | 40.9 |  |  |  |  |  | 
